14 molecules from PubChem BioAssay (NCI) can be followed below.

Test systems include BT-549 breast; SN12C renal; MDA-MB-435; PC-3 prostate; TK-10 renal; NCI-H23 lung; UACC-62 melanoma; 786-0 renal; HL-60(TB) leukemia; UO-31 renal.
Holding throughout (assay): NCI anticancer screen, dose series, 48 h

The structures appear in SMILES notation.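 In this assay, cells in 96-well plates receive the compound at five concentrations for 48 hours. Endpoints are linearly interpolated between the surrounding concentrations. TGI denotes the concentration required for complete inhibition of growth.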

`Cc1c2cccc-2c2cc(O)c3ccccc3c2n1-c1ccc(N(C)C)cc1`: the TGI with BT-549 breast was determined as 23.3 µM; in the assay with SN12C renal, 33.9 µM; in the assay with MDA-MB-435 it was 27.8 µM; in the assay on PC-3 prostate, 23.9 µM; with TK-10 renal it was 32.5 µM; in the assay on NCI-H23 lung, 18.2 µM. Further, the TGI in the assay with UACC-62 melanoma was 29.5 µM; with 786-0 renal, 33.1 µM; with HL-60(TB) leukemia it was above 100 µM; in the assay on UO-31 renal it was 24.8 µM.

For `CN(C)c1ccc(/C=C(\NC(=O)c2ccccc2)C(=O)NC(CC(=O)O)C(=O)O)cc1` (configuration not stated), the TGI with BT-549 breast, with SN12C renal, in the assay on MDA-MB-435, in the assay with PC-3 prostate, with TK-10 renal and with NCI-H23 lung was above 100 µM each time. The TGI in the assay on UACC-62 melanoma, with 786-0 renal, in the assay with HL-60(TB) leukemia and with UO-31 renal was above 100 µM in each case.

Take `COC(=O)c1ccccc1C1CN=NC12Cc1c(ccc(C)c1C)C2=O` (configuration not stated): the TGI in the assay on BT-549 breast, with SN12C renal, in the assay on MDA-MB-435, in the assay with PC-3 prostate, in the assay on TK-10 renal and in the assay on NCI-H23 lung was above 100 µM each time. For the same molecule, the TGI in the assay on UACC-62 melanoma, in the assay on 786-0 renal, with HL-60(TB) leukemia and in the assay with UO-31 renal was above 100 µM each time.

As for `OCc1cn(Cc2ccccc2)c2ccccc12`, the TGI with BT-549 breast was 23.1 µM; with SN12C renal it was above 46.8 µM; in the assay on MDA-MB-435 it was above 64.7 µM; with PC-3 prostate, 78.2 µM; with NCI-H23 lung it was 31 µM; in the assay with UACC-62 melanoma, 4.98 µM. For the same molecule, the TGI was above 53 µM with 786-0 renal, above 83.2 µM with HL-60(TB) leukemia and above 100 µM in the assay on UO-31 renal.

As for `CN(CCN1CCCC1)C1CCc2cc(Cl)c(Cl)cc2C1` (configuration not stated), the TGI in the assay on BT-549 breast was 28.5 µM; with SN12C renal, 30.9 µM; with MDA-MB-435, 37.5 µM; in the assay on PC-3 prostate, 52.4 µM; in the assay on TK-10 renal, 30.9 µM; in the assay with NCI-H23 lung, 30.1 µM. Besides, the TGI in the assay on UACC-62 melanoma is 19.4 µM; in the assay with 786-0 renal it was 28.3 µM; with HL-60(TB) leukemia, 37.4 µM; with UO-31 renal it was 27.7 µM.

Regarding `CC(=O)Nc1nc(Cl)cc(NCC2(CO)CCC2)n1`, the TGI in the assay on BT-549 breast, in the assay on SN12C renal, with MDA-MB-435, in the assay on PC-3 prostate, in the assay with NCI-H23 lung and in the assay with UACC-62 melanoma was above 100 µM in each case. Also, the TGI in the assay with 786-0 renal, in the assay on HL-60(TB) leukemia and in the assay with UO-31 renal was above 100 µM throughout.

As for `Cc1c(C)n(-c2ccccc2)c2nc(S(C)=O)nc(S(C)=O)c12` (configuration not stated), the TGI in the assay on BT-549 breast is 4.13 µM; with SN12C renal, 24.6 µM; with MDA-MB-435, 9.76 µM; with PC-3 prostate it was 19.7 µM; in the assay with TK-10 renal, 7.36 µM; in the assay with NCI-H23 lung it was 29.5 µM. The TGI in the assay on UACC-62 melanoma amounted to 20.1 µM; with 786-0 renal, 10.1 µM; in the assay with HL-60(TB) leukemia it was 3.39 µM; in the assay with UO-31 renal it was 20.2 µM.

For `Cc1ccc2cccc(-c3cccc4ccccc34)c2n1`, the TGI was above 100 µM in the assay with BT-549 breast; above 100 µM in the assay on SN12C renal; 7.58 µM in the assay on MDA-MB-435; above 100 µM in the assay with PC-3 prostate; 36.2 µM in the assay with TK-10 renal; above 100 µM with NCI-H23 lung. The TGI in the assay with UACC-62 melanoma was 61.9 µM; in the assay on 786-0 renal it was above 100 µM; in the assay with HL-60(TB) leukemia, 16.3 µM; in the assay with UO-31 renal it was 51.4 µM.

For `COc1cccc(C2c3cc4c(cc3OC(O)C2C)OCO4)c1OC` (configuration not stated), the TGI in the assay with BT-549 breast was determined as 65.6 µM; in the assay on SN12C renal, 64 µM; with MDA-MB-435 it was 33.9 µM; in the assay on PC-3 prostate it was 32.1 µM; with TK-10 renal, 52 µM; in the assay on NCI-H23 lung, 64 µM. In addition, the values for the TGI in the assay with UACC-62 melanoma, in the assay with 786-0 renal and with HL-60(TB) leukemia were 44.7 µM, 19.2 µM and 4.83 µM, respectively.

Regarding `O=CC(I)=C(c1ccccc1)c1ccccc1`, the TGI in the assay with BT-549 breast came to 30 µM; in the assay with SN12C renal it was 45.3 µM; with MDA-MB-435 it was 31.4 µM; in the assay on PC-3 prostate it was 29.3 µM; in the assay on TK-10 renal it was 44.8 µM; with NCI-H23 lung, 46.9 µM. In addition, the TGI in the assay with UACC-62 melanoma worked out at 34.5 µM; in the assay with 786-0 renal it was 28.9 µM; in the assay with HL-60(TB) leukemia it was 38.6 µM; with UO-31 renal, 29.1 µM.

As to `C[C@@H]1CC[C@@]2(C)C(C(=O)O)=CCCC2[C@@]1(C)CC(=O)c1ccoc1` (some centres not stated), the TGI with BT-549 breast, in the assay on SN12C renal, in the assay with MDA-MB-435, in the assay on PC-3 prostate, with TK-10 renal and in the assay on NCI-H23 lung was above 25 µM each time. The TGI in the assay with UACC-62 melanoma, in the assay with 786-0 renal, in the assay with HL-60(TB) leukemia and in the assay with UO-31 renal was above 25 µM throughout.

Turning to `CC1CC(N2CCOCC2)=Nc2ccccc2N1C` (configuration not stated), the TGI with BT-549 breast, in the assay on SN12C renal, in the assay on MDA-MB-435, in the assay on PC-3 prostate, in the assay on TK-10 renal and with NCI-H23 lung was above 100 µM each time. The TGI in the assay on UACC-62 melanoma, with 786-0 renal, in the assay on HL-60(TB) leukemia and in the assay with UO-31 renal was above 100 µM throughout.

Regarding `O=C1C=CC2(O[C@H](c3ccccc3)[C@@H](c3ccccc3)O2)[C@H](Sc2ccccc2O)C1`, the TGI in the assay with BT-549 breast amounted to 1.46 µM; in the assay on SN12C renal it was 0.353 µM; in the assay with MDA-MB-435, 0.982 µM; with PC-3 prostate, 2.06 µM; in the assay on TK-10 renal it was 0.966 µM; with NCI-H23 lung it was 2.39 µM. Further, the TGI in the assay on UACC-62 melanoma came to 2.13 µM; in the assay on 786-0 renal, 0.356 µM; in the assay on HL-60(TB) leukemia, 2.82 µM; in the assay on UO-31 renal, 1.22 µM.

For the molecule `O=C(c1ccco1)N(C(=O)N1CCCCC1)c1ccccc1`, the TGI in the assay with BT-549 breast, in the assay with SN12C renal, in the assay on MDA-MB-435, in the assay with PC-3 prostate, in the assay on TK-10 renal and in the assay on NCI-H23 lung was above 100 µM throughout. Also, the TGI in the assay with UACC-62 melanoma, in the assay on 786-0 renal, with HL-60(TB) leukemia and in the assay on UO-31 renal was above 100 µM in each case.
